In brackets after ≈: the same amount, converted by molar mass.

For the data set the following is noted: buffer; pH 7.4; 200.0 µM.
For `COc1ccc(C(=O)OCC(=O)c2ccc3c(c2)NC(=O)CO3)cc1OC`, the solubility (kinetic) (usually solubility judged after dilution from a stock solution rather than from solid) is 10.8 µg/mL (≈ 29.1 µM). To `COC(=O)[C@H](CC(C)C)NC(=O)Nc1ccc(F)cc1` belongs more than 42.3 µg/mL. To `CCOc1ccc(CNC2CCCCCCC2)cc1OC.Cl` belongs 37.1 µg/mL; to `CC1CCCC(C)N1C(=O)COC(=O)Cc1ccc(Cl)cc1` (configuration not stated), more than 48.6 µg/mL. To `COCCN(C(=S)Nc1cccc(C)c1)C(C)c1cccnc1` (configuration not stated) belongs 48.2 µg/mL (≈ 146 µM); to `Cc1cccc(N2C(=O)c3cccc4cccc(c34)C2=O)c1`, 1.5 µg/mL (≈ 5.22 µM); to `COCCNC(=S)N1CCN(S(=O)(=O)c2ccc(Cl)s2)CC1`, 11.4 µg/mL (≈ 29.7 µM).

As to `O=C1NC2(CCCCCCC2)C(=O)N1Cc1ccc(F)cc1`, the kinetic solubility was 10.5 µg/mL (≈ 34.5 µM). As for `COc1ccc([N+](=O)[O-])cc1NC(=O)c1ccccc1SC`, the figure is 0.4 µg/mL (≈ 1.26 µM).

In the case of `O=C(NCc1cccnc1)c1ccc(Br)s1`, the solubility (kinetic) was more than 44.6 µg/mL. To `COc1cccc(C(=O)N2CCOCC2)c1OC` belongs more than 37.7 µg/mL; to `Cc1ccc(CN(C)c2nc(-c3cccnc3)nc3ccccc23)o1`, 15.5 µg/mL (≈ 46.9 µM); to `Cc1cccc(/C(N)=N/OC(=O)c2ccncc2)c1`, 29.1 µg/mL (≈ 114 µM). To `CCSc1ccccc1-c1nc(-c2ccncc2)no1` belongs 5.1 µg/mL (≈ 18 µM). To `CCc1cccc2c(C(=O)COC(=O)[C@@H]3CC(O)CN3S(=O)(=O)c3ccccc3[N+](=O)[O-])c[nH]c12` (some centres not stated) belongs 30.6 µg/mL (≈ 61 µM). `CC(Sc1ccc([N+](=O)[O-])cn1)C(=O)Nc1nccs1` (configuration not stated) came in with a solubility (kinetic) of 5 µg/mL (≈ 16.1 µM).

Regarding `COc1ccc(CCN=Cc2ccc(O)cc2)cc1OC`, the solubility (kinetic) was 40.1 µg/mL (≈ 141 µM). To `Cc1ccc(NC(=S)N2CCC(NC(=O)c3ccccc3)CC2)cc1` belongs 8.8 µg/mL (≈ 24.9 µM); to `O=C(Nc1cccc(C(F)(F)F)c1)c1cc[n+]([O-])cc1`, more than 42.3 µg/mL; to `Cc1ccc(-c2nc(CNC(=O)c3cc(C)on3)cs2)cc1`, 35.4 µg/mL (≈ 113 µM). As for `Cc1ccn2cc(CNS(=O)(=O)c3cccs3)nc2c1`, the figure is more than 46.1 µg/mL; as for `COC(=O)CNc1nc(Cl)nc(N2CCC(C)CC2)n1`, 39.5 µg/mL (≈ 132 µM). As for `CC(C)(C)N(Cc1ccccc1)C(=O)c1ccncc1`, the kinetic solubility is more than 40.3 µg/mL. To `COc1ccccc1CCNC(=O)c1ccc(Br)s1` belongs 29 µg/mL (≈ 85.2 µM); to `O=C(c1ccc(N2C(=O)c3ccccc3C2=O)cc1)N1CCCCC1`, more than 50.2 µg/mL; to `CC1CN(Cc2cc(=O)oc3cc(O)c(Cl)cc23)CC(C)O1` (configuration not stated), 41 µg/mL (≈ 127 µM). As for `NC(=O)NC(=O)CN1C(=O)NC2(CCOc3ccccc32)C1=O` (configuration not stated), the figure is more than 47.7 µg/mL; as for `Cn1c(SCC(=O)Nc2sccc2C(N)=O)nc2ccccc2c1=O`, 3.8 µg/mL (≈ 10.1 µM). To `Cn1c(=O)c2nc(-c3ccccc3)c(-c3ccccc3)nc2n(C)c1=O` belongs 0.9 µg/mL (≈ 2.61 µM); to `COc1ccc(NS(=O)(=O)c2ccc(C)cc2)c([N+](=O)[O-])c1`, 44.1 µg/mL (≈ 137 µM). Regarding `Cc1cccc(OCC(=O)NC2CCCCCC2)c1C`, the solubility (kinetic) is less than 0.6 µg/mL. `O=C(CCN1C(=O)C2CC=CCC2C1=O)Nc1nccs1` (configuration not stated) yielded a kinetic solubility of more than 45.8 µg/mL. `CC1(C)CC(NC(=O)c2ccc(Cl)cc2)CC(C)(C)N1` gave a kinetic solubility of more than 44.2 µg/mL. The compound `O=C(NC1CCCCCCC1)c1cc([N+](=O)[O-])ccc1Cl` showed a kinetic solubility of 8.5 µg/mL (≈ 27.4 µM). `O=C(Nc1nc(-c2cccnc2)cs1)c1ccccc1F` yielded a kinetic solubility of less than 0.2 µg/mL.

For the compound `CCC1CCC2(CC1)SCC(=O)N2c1ccccc1` (configuration not stated), the solubility (kinetic) is 5.7 µg/mL (≈ 20.7 µM). To `CCNC(=O)CC1C(=O)N(CC)C(=S)N1NC(=O)c1ccccc1` (configuration not stated) belongs more than 52.3 µg/mL; to `COC(=O)c1ccc(Nc2c([N+](=O)[O-])c(=O)oc3ccccc23)cc1`, 4.1 µg/mL (≈ 12 µM). To `Cc1ccc(NC(=O)C2CCCC2)c(Br)c1` belongs 8.6 µg/mL (≈ 30.5 µM); to `Cc1ccccc1OCCCn1c(CO)nc2ccccc21`, 12.9 µg/mL (≈ 43.5 µM). As for `Cc1ccc(NC(=O)CN2CCN(C(=O)c3ccco3)CC2)cc1`, the figure is 47.8 µg/mL (≈ 146 µM). `COc1cccc2c1CCc1c-2nc2ccccc2c1C(=O)O` had a solubility (kinetic) of more than 45.8 µg/mL. As for `COc1ccc(CNC(=O)C(C)N(C)Cc2cccc(F)c2)cc1` (configuration not stated), the figure is 26.1 µg/mL (≈ 79 µM); as for `O=c1c2sc(-c3ccccc3)cc2nc2n1CCCCC2`, 29.5 µg/mL (≈ 99.5 µM). To `O=C(COC(=O)c1cccc(F)c1)NCCC1=CCCCC1` belongs 9.5 µg/mL (≈ 31.1 µM); to `Cn1c(SCC(=O)N2CCCC2=O)nc2ccccc2c1=O`, 13.2 µg/mL (≈ 41.6 µM).

Compound `Cc1noc(C)c1C(=O)N1CCC(C(=O)c2ccc(F)cc2F)CC1` returned a kinetic solubility of more than 52.3 µg/mL.

`COc1cccc(C(CNC(=O)c2ccc(Cl)c(S(=O)(=O)N3CCCC3)c2)N(C)C)c1` (configuration not stated) registered a solubility (kinetic) of more than 69.9 µg/mL. In the case of `O=C(COC(=O)c1cccnc1Cl)NCCc1ccccc1`, the solubility (kinetic) is more than 47.8 µg/mL. To `O=C(O)CC1(CC(=O)Nc2ccc(F)cc2F)CCCCC1` belongs more than 46.7 µg/mL; to `OC(CC#CCN1CCCCC1)(c1ccccc1)c1ccccc1`, more than 47.9 µg/mL; to `O=C(CN1C(=O)NC2(CCCCC2)C1=O)N1CCOCC1`, more than 44.3 µg/mL. As for `Cc1ccc(S(=O)(=O)N2CCOCC2)cc1C(=O)N1CCCC1`, the figure is more than 50.8 µg/mL; as for `Cc1ccc(Sc2ncccc2NC(=O)c2ccccc2Cl)cc1`, 2 µg/mL (≈ 5.64 µM); as for `Cc1ccc(Oc2ncccc2C(=O)NCC(=O)O)cc1`, 42.7 µg/mL (≈ 149 µM). To `O=C(Nc1ccccc1N1CCCC1)c1cccc(F)c1` belongs more than 42.6 µg/mL; to `COc1ccc(Cl)cc1Nc1nc(N)c2ccccc2n1.Cl`, 5.3 µg/mL; to `O=C(c1ccc(Cl)cc1)N1CCN(CCOc2ccccc2)CC1`, more than 51.7 µg/mL. `O=C(Nc1cccc2ncccc12)C(c1ccccc1)c1ccccc1` returned a solubility (kinetic) of less than 0.4 µg/mL.

In turn, `O=C(CSc1nncn1-c1ccccc1F)NC1CC1` returned a kinetic solubility of more than 43.8 µg/mL. As for `Cc1ccccc1N1C(=O)c2cccc3cccc(c23)C1=O`, the figure is 2.5 µg/mL (≈ 8.7 µM). Compound `O=C(Nc1cccnc1Cl)c1ccc(Cl)cc1` returned a solubility (kinetic) of 35 µg/mL (≈ 131 µM). As for `COc1ccccc1NC(=O)CC(=O)Nc1ccccc1OC`, the figure is more than 47.2 µg/mL. As for `Cc1ccc(C)c(C(=O)COC(=O)c2c(-c3ccccc3)noc2C)c1`, the figure is 4.4 µg/mL (≈ 12.6 µM). To `COc1ccc(CC(=O)N2CCCC2)c(OC)c1` belongs 36.6 µg/mL (≈ 147 µM); to `COC(=O)c1ccc2c(=O)[nH]c(COC(=O)c3[nH]c(C)c(C(C)=O)c3C)nc2c1`, 18.1 µg/mL (≈ 45.5 µM); to `Cn1c(SCC(=O)NC2CCCC2)nnc1C(F)(F)F`, more than 46.2 µg/mL. Take `CCOC(=O)C1CCCN(C(=O)CSc2nnc3nc(C)cc(C)n23)C1` (configuration not stated): the kinetic solubility was more than 56.6 µg/mL. To `COc1cc2nc(-c3ccccc3C)oc(=O)c2cc1OC` belongs less than 0.6 µg/mL; to `O=C(Nc1cccc(S(=O)(=O)N2CCOCC2)c1)c1ccc(Cl)nc1`, more than 57.3 µg/mL; to `O=C(CCCSc1ccc(Cl)cc1)Nc1ccccc1O`, 8.6 µg/mL (≈ 26.7 µM). To `O=S(=O)(NCC1CC1)c1cc(Cl)cc(Cl)c1` belongs 10.2 µg/mL (≈ 36.4 µM); to `Nc1c(N(CCO)C(=O)C2CCCC2)c(=O)[nH]c(=O)n1Cc1ccccc1`, more than 55.9 µg/mL. To `COc1ccc(CCNC(=O)CCc2cn(C)c3ccccc23)c(OC)c1` belongs 16.9 µg/mL (≈ 46.1 µM); to `O=C(CCC(=O)N1CCN(S(=O)(=O)c2ccc([N+](=O)[O-])cc2)CC1)N1CCOCC1`, more than 66.1 µg/mL.

`COc1cccc(C(=O)O/N=C(\N)c2ccccn2)c1OC`: the kinetic solubility was more than 45.2 µg/mL. For the compound `COc1ccc(C(=O)N2CCN(CC(=O)N3CCOCC3)CC2)cc1`, the kinetic solubility came out at 40.6 µg/mL (≈ 117 µM). To `COc1ccc(NC(=O)c2ccc3c(c2)C(=O)N(Cc2ccncc2)C3=O)cc1S(N)(=O)=O` belongs 3.4 µg/mL (≈ 7.29 µM). As for `Cc1ccc(C(=O)COC(=O)CN2C(=O)C3C4CCC(C4)C3C2=O)cc1C` (configuration not stated), the figure is 46.2 µg/mL (≈ 125 µM); as for `O=C(c1ccc(Cl)cc1)N1CCC2(CC1)OCCO2`, 39.6 µg/mL (≈ 141 µM); as for `CCC(C)[C@H](NC(=O)Nc1ccccc1F)C(=O)OC` (some centres not stated), more than 42.3 µg/mL. To `CCOn1c(=O)c(-c2ccc(C)cc2)[n+]([O-])c2ccccc21` belongs 33.5 µg/mL (≈ 113 µM); to `O=C(O)C1CCCN1S(=O)(=O)c1ccc(Br)cc1` (configuration not stated), more than 50.1 µg/mL; to `Cc1nn(CC(=O)NC2CC2)c(C)c1S(=O)(=O)NC(C)(C)C`, more than 49.3 µg/mL. `C=CCN(c1ccccc1)S(=O)(=O)c1c(C)[nH]c(=O)[nH]c1=O` came in with a solubility (kinetic) of more than 48.2 µg/mL.

Consider `O=C(c1ccccc1)N1CCN(S(=O)(=O)N2CCCCCC2)CC1`, for which the kinetic solubility is more than 52.7 µg/mL.

Regarding `CCc1cccc(CC)c1NC(=S)Nc1cccc(Cl)c1Cl`, the solubility (kinetic) turned out to be 1.4 µg/mL (≈ 3.96 µM).

On to `Cc1cc(C(=O)OCC(=O)Nc2ccc(F)cc2)c(C)n1C1CC1`, for which the kinetic solubility came to 6.2 µg/mL (≈ 18.8 µM).

For the compound `O=C(Nc1nc2ccccc2[nH]1)c1cccc(Br)c1`, the kinetic solubility turned out to be 0.6 µg/mL (≈ 1.9 µM). For the compound `Cc1cc(Br)cc2c1N(C)C(=O)C2(c1ccc(O)cc1)c1ccc(O)cc1`, the kinetic solubility stood at 7.4 µg/mL (≈ 17.4 µM). To `CC(C)C(OC(=O)c1ccco1)C(=O)NC1CCCC1` (configuration not stated) belongs more than 41.9 µg/mL; to `O=S1(=O)CC(O)C(NCCO)C1` (configuration not stated), more than 29.3 µg/mL; to `COC(=O)c1ccc(N2CCN(c3ccccc3)CC2)c(N)c1`, 0.8 µg/mL (≈ 2.57 µM). As for `COc1ccc(CCNc2nc(C)c(C(C)=O)s2)cc1OC`, the figure is 44.1 µg/mL (≈ 138 µM); as for `NC(=O)CNC(=O)c1cccc(Cl)c1`, more than 31.9 µg/mL; as for `CC(=O)c1cccc(NC(=S)N2c3ccccc3CC2C)c1` (configuration not stated), 1.4 µg/mL (≈ 4.51 µM). To `CC(=O)CCc1oc2c([N+](=O)[O-])cccc2c1-c1ccc(C)o1` belongs 2.8 µg/mL (≈ 8.94 µM); to `Cc1cccc(N2C(=O)Cc3ccccc3C2=O)c1`, 30.7 µg/mL (≈ 122 µM). Regarding `CN1C(=O)N(C)C(c2ccccc2Cl)C2=C1CC(C)(C)CC2=O` (configuration not stated), the solubility (kinetic) was more than 49.9 µg/mL. To `NS(=O)(=O)c1ccc(CCNC(=O)c2ccc3ccccc3n2)cc1` belongs 10.6 µg/mL (≈ 29.8 µM); to `O=C(COC(=O)c1ccc(OC(F)F)cc1)NCc1cccs1`, 35.5 µg/mL (≈ 104 µM); to `O=C(NCCNC(=O)c1ccc(Cl)cc1Cl)c1ccccn1`, 43.4 µg/mL (≈ 128 µM).

The record behind these values is PubChem BioAssay AID1996.
